Measured values as given in ChEMBL document CHEMBL3351502, “Flavones: an important scaffold for medicinal chemistry” (Eur J Med Chem, 2014).
≈ marks a conversion by molar mass, not a printed value.

Tests used:
[1] = target: Telomerase reverse transcriptase (Homo sapiens, UniProt O14746); assay: Inhibition of telomerase activity (unknown origin)
[2] = target: Xanthine dehydrogenase/oxidase (Homo sapiens, UniProt P47989); assay: Inhibition of xanthine oxidase (unknown origin)
[3] = Inhibition of advanced glycation end product formation; type: physicochemical
LNCaP = assay: Downregulation of prostate specific antigen secretion in human LNCAP cells; type: functional, cell-based
Homo sapiens = species: Homo sapiens; assay: Inhibition of alpha glucosidase (unknown origin) at 0.5 mg/ml
[4] = target: Benzodiazepine receptors; peripheral & central; assay: Binding affinity to benzodiazepine receptor (unknown origin); type: protein assay, Homo sapiens
Plasmodium falciparum = assay: Antimicrobial activity against Plasmodium falciparum; type: functional, organism-based
[5] = target: T1, Succinate-semialdehyde dehydrogenase, mitochondrial (Homo sapiens, UniProt P51649); assay: Inhibition of SSADH (unknown origin)
T1 sequence (P51649 whole entry): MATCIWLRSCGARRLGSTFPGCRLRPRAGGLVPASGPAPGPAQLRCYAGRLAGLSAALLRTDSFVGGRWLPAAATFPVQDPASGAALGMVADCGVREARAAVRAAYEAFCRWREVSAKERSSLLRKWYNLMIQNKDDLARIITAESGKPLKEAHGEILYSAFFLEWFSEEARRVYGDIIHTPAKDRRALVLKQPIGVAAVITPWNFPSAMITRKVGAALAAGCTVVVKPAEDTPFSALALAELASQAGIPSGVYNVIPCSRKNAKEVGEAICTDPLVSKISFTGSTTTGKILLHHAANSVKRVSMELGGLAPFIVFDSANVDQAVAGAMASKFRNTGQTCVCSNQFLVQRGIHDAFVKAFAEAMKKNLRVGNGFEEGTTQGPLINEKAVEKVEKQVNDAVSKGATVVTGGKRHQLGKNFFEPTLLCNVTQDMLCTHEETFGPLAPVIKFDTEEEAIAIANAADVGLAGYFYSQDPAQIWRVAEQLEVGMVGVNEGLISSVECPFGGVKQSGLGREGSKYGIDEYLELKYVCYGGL

[6] = target: T2, Cystic fibrosis transmembrane conductance regulator (Homo sapiens, UniProt P13569); assay: Stimulation of CFTR (unknown origin)
[7] = target: T2, Cystic fibrosis transmembrane conductance regulator; assay: Inhibition of forskolin-stimulated CFTR (unknown origin)
Leishmania = assay: Leishmanicidal activity against Leishmania; type: functional, organism-based
Acetylcholinesterase = Acetylcholinesterase (Homo sapiens, UniProt P22303); assay: Inhibition of AChE (unknown origin)
Staphylococcus aureus = assay: Antimicrobial activity against Staphylococcus aureus; type: functional
[8] = target: T3, Human immunodeficiency virus type 1 integrase (Human immunodeficiency virus 1, UniProt Q7ZJM1); assay: Inhibition of HIV-1 integrase strand transfer activity
[9] = target: T3, Human immunodeficiency virus type 1 integrase; assay: Inhibition of HIV-1 integrase terminal cleavage activity
Rattus norvegicus = species: Rattus norvegicus; assay: Antiulcer activity in rat assessed as protection from indomethacin-induced gastric damage; type: functional; details: Stomach
Adenosine receptor A3 = target: T4, Adenosine receptor A3 (Homo sapiens, UniProt P0DMS8); assay: Binding affinity to human adenosine A3 receptor
T4 sequence (P0DMS8 whole entry): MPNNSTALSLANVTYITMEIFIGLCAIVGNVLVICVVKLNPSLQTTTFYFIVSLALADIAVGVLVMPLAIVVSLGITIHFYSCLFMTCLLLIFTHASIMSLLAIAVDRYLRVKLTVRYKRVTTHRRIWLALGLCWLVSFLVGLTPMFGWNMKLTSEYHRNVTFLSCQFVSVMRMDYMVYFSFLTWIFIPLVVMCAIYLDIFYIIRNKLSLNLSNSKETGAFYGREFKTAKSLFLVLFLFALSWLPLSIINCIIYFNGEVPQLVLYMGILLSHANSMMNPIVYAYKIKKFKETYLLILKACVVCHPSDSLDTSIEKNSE

[10] = Competitive inhibition of muscarinic receptor (unknown origin); parameters: species or system Homo sapiens
[11] = target: 4-aminobutyrate aminotransferase, mitochondrial (Homo sapiens, UniProt P80404); assay: Inhibition of GABA transaminase (unknown origin)
[12] = Inhibition of alpha glucosidase (unknown origin); parameters: species or system Homo sapiens

T3 sequence (Q7ZJM1 whole entry): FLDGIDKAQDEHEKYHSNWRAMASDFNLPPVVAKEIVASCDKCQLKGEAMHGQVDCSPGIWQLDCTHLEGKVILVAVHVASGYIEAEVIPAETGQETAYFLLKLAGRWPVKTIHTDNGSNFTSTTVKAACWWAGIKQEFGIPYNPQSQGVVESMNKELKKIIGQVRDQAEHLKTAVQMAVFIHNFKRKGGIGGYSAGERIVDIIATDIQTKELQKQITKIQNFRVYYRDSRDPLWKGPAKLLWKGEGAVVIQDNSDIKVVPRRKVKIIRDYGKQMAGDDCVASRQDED
T2 sequence (P13569 whole entry): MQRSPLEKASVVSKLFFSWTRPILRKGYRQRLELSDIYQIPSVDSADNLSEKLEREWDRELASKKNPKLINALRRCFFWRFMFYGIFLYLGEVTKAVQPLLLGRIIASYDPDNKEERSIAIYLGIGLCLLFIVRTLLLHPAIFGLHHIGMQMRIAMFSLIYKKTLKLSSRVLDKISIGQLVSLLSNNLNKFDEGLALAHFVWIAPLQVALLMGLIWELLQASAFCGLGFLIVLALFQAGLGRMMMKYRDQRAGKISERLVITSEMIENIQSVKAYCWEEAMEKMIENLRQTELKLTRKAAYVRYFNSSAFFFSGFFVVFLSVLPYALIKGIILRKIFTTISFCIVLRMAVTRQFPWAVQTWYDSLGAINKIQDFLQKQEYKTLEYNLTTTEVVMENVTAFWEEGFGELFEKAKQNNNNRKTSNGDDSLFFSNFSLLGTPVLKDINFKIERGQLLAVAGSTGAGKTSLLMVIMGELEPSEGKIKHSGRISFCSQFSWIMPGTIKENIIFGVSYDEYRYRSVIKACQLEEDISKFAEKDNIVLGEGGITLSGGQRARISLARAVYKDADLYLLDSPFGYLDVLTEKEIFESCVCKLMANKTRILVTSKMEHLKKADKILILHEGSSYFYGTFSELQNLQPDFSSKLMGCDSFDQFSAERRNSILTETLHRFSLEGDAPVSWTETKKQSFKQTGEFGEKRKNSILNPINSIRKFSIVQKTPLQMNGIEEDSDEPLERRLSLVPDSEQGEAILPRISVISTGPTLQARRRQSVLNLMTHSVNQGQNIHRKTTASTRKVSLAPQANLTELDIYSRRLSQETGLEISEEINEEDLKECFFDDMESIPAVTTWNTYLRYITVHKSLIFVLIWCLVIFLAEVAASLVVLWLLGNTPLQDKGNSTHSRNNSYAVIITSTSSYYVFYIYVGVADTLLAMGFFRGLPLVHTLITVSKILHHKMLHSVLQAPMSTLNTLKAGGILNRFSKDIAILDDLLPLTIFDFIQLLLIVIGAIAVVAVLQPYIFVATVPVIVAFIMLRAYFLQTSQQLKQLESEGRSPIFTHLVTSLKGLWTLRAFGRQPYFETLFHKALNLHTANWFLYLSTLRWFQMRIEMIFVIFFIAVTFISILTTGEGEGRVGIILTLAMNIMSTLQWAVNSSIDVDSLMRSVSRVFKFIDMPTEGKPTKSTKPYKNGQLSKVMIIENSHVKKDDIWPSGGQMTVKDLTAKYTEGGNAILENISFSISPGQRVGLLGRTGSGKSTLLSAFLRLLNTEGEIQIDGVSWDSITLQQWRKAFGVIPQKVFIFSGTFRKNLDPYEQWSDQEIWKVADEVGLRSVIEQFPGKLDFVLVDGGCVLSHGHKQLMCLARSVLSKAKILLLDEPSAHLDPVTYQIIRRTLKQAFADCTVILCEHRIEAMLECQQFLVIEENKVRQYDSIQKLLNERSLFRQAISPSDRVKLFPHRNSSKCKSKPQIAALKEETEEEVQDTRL
Acetylcholinesterase, sequence (P22303 whole entry): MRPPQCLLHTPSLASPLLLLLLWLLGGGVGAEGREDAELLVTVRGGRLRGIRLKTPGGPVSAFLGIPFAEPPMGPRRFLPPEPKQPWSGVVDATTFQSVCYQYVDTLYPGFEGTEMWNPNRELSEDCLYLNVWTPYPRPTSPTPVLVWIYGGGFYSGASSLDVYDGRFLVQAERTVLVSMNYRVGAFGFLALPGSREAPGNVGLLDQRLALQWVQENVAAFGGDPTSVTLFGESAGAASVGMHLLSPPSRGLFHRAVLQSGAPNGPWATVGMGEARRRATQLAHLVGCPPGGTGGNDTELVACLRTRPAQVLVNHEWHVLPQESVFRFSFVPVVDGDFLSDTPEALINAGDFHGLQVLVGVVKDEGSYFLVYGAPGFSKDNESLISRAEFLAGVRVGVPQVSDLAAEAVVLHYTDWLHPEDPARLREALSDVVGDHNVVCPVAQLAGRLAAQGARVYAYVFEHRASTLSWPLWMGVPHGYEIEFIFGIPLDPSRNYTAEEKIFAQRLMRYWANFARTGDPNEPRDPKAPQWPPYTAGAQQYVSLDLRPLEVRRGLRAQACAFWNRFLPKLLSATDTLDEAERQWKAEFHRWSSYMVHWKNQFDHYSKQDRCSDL
Xanthine dehydrogenase/oxidase, sequence (P47989 whole entry): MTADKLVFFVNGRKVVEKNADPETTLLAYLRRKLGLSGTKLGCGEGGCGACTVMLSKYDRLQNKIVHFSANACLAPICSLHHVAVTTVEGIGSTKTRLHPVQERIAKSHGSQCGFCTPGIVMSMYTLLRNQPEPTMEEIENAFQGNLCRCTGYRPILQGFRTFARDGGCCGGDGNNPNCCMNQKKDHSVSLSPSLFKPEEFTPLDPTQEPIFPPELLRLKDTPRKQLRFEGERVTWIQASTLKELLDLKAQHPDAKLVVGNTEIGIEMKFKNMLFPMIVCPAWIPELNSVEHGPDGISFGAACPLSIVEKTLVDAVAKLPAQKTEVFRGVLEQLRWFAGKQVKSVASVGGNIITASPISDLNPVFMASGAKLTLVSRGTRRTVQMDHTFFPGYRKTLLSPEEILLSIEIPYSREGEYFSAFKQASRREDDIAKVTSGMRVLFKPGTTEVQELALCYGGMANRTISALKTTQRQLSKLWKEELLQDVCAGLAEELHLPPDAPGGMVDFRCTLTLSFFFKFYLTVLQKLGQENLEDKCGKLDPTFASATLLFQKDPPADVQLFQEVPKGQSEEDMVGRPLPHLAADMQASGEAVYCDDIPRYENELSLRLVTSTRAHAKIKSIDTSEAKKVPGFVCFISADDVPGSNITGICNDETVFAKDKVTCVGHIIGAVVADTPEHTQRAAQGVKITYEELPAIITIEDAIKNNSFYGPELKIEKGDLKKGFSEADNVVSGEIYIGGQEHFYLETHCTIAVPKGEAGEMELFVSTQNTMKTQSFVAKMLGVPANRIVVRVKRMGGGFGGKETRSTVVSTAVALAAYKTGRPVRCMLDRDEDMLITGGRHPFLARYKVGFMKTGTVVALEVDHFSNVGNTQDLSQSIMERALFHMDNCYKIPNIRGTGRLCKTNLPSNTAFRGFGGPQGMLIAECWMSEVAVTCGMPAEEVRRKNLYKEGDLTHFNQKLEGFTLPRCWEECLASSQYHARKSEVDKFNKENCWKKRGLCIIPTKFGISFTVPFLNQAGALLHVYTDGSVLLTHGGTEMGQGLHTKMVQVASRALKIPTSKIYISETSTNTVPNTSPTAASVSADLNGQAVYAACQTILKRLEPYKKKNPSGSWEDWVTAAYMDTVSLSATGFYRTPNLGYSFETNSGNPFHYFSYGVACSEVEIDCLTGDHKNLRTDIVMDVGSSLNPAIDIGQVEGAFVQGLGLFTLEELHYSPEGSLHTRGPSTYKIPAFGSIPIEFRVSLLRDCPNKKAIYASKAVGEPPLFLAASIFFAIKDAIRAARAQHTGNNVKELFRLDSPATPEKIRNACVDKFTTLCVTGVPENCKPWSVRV
4-aminobutyrate aminotransferase, mitochondrial, sequence (P80404 whole entry): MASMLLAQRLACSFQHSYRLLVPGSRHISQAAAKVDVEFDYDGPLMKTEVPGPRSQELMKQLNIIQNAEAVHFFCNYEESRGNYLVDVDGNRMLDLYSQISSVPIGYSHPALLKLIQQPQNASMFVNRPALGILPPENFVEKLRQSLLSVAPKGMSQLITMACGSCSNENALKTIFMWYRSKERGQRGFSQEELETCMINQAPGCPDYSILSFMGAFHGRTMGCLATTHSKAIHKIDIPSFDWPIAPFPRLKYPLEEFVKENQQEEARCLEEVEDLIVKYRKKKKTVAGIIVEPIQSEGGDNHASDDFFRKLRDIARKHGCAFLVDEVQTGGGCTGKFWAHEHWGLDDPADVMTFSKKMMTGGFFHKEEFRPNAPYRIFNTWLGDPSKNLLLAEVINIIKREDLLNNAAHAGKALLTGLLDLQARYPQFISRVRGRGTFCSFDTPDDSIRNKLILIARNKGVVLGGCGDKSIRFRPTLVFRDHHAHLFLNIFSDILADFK

O=c1cc(-c2ccc(OCc3ccc(Cl)nc3)cc2)oc2cc(OCc3ccc(Cl)nc3)ccc12
IC50 [1]: 36.5 µM

O=c1cc(-c2ccc(O)c(O)c2)oc2cc(O)cc(O)c12 [LUTEOLIN]
Ki [2]: 2900 nM | IC50 [3]: 99 µM | IC50 (LNCaP): 5 µM | inhibition (Homo sapiens): 36%

Cc1ccc2oc(-c3cc(Br)ccc3O)cc(=O)c2c1
Ki [4]: 0.9 nM

O=C1c2c(O)cc(O)cc2O[C@H](c2ccc(O)cc2)[C@H]1[C@@H]1C(=O)c2c(O)cc(O)cc2O[C@H]1c1ccc(O)cc1
IC50 (Plasmodium falciparum): 7.3 µM

O=c1cc(-c2cccc([N+](=O)[O-])c2)oc2ccc([N+](=O)[O-])cc12
Ki [4]: 1.5 nM

O=c1cc(-c2ccc(O)cc2)oc2cc(O)c(O)c(O)c12 [SCUTELLAREIN]
IC50 [5]: 7.2 mM

O=c1cc(-c2ccc(O)cc2)oc2cc(O)cc(O)c12 [APIGENIN]
Ki [2]: 520 nM | EC50 [6]: 9 µM | Ki [7]: 81 µM

O=c1cc(-c2ccc(OCCOCCN(CCOCCOc3ccc(-c4cc(=O)c5ccccc5o4)cc3)Cc3ccncc3)cc2)oc2ccccc12
IC50 (Leishmania): 130 nM

O=c1cc(-c2ccc(CN3CCCCC3)cc2)oc2ccccc12
IC50 (Acetylcholinesterase): 55 nM

N=C(NC1CCCCC1)c1ccc2nc(-c3ccc4oc(-c5ccccc5)cc(=O)c4c3)[nH]c2c1
MIC (Staphylococcus aureus): 1.56 µg/mL (≈ 3.37 µM)

O=c1cc(-c2ccc(O)c(O)c2)oc2cc(O[C@@H]3O[C@H](CO)[C@@H](O)[C@H](O)[C@H]3OS(=O)(=O)O)cc(O)c12
IC50 [8]: 400 µM | IC50 [9]: 2.1 mM

COc1cccc2oc(-c3ccc(F)cc3)cc(=O)c12
ED50 (Rattus norvegicus): 5.5 mg/kg

Cc1ccc(-c2oc3ccc(Cl)cc3c(=O)c2O)c(OC(C)C)c1
Ki (Adenosine receptor A3): 560 nM

O=c1cc(-c2ccc(Oc3c(O)cc(O)c4c(=O)cc(-c5ccc(O)cc5)oc34)cc2)oc2cc(O)cc(O)c12 [LANAROFLAVONE]
IC50 (Plasmodium falciparum): 0.48 µM

COc1cc2oc(-c3ccc(CN4CCCC4)cc3)cc(=O)c2cc1OC
IC50 (Acetylcholinesterase): 34 nM

COc1cc([C@H]2Oc3cc(-c4cc(=O)c5ccccc5o4)ccc3O[C@@H]2CO)ccc1O
MIC (Staphylococcus aureus): 0.08 µg/mL (≈ 0.185 µM)

O=c1cc(-c2cccc([N+](=O)[O-])c2)oc2ccc(Br)cc12
Ki [4]: 1.5 nM

COc1c(OC)c(OC)c2c(=O)c(OC)c(-c3ccc4c(c3)OCO4)oc2c1OC
Ki [10]: 76.5 µM

O=c1cc(-c2ccccc2)oc2cc(O)c(O)c(O)c12 [BAICALEIN]
IC50 [11]: 12.8 mM | IC50 [3]: 93 µM | IC50 [12]: 52 µM
